“And” between values parts separate entries of the source, which are not always exact repeats. Equal entries are not always repeated. Inconclusive results and toxic doses are left out.
Tested on: P388 leukemia ip, CD2F1 mice, survival T/C
Test: NCI In Vivo Anticancer Drug Screen. Data for tumor model P388 Leukemia (intraperitoneal) in CD2F1 (CDF1) mice
Details: endpoint: median survival time, higher = longer survival
Summary of the method: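 Mice carrying the transplanted tumor received test compound or vehicle. Survival was recorded in each group, and the value is the treated-group measurement divided by that of the vehicle-treated control group.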

[1] = dose: 50.0 mg/kg/injection, schedule: Q01DX005 (ip), vehicle: Klucel (hydroxypropylcellulose) (HPC)
[2] = dose: 100.0 mg/kg/injection, schedule: Q01DX005 (ip), vehicle: Klucel (hydroxypropylcellulose) (HPC)
[3] = dose: 60.0 mg/kg/injection, schedule: Q01DX005 (ip), vehicle: saline
[4] = dose: 120.0 mg/kg/injection, schedule: Q01DX005 (ip), vehicle: saline
[5] = dose: 240.0 mg/kg/injection, schedule: Q01DX005 (ip), vehicle: saline
[6] = dose: 50.0 mg/kg/injection, schedule: Q01DX005 (ip), vehicle: saline with Tween-80
[7] = dose: 100.0 mg/kg/injection, schedule: Q01DX005 (ip), vehicle: saline with Tween-80
[8] = dose: 200.0 mg/kg/injection, schedule: Q01DX005 (ip), vehicle: saline with Tween-80
[9] = dose: 100.0 mg/kg/injection, schedule: Q01DX009 (ip), vehicle: saline with Tween-80
[10] = dose: 200.0 mg/kg/injection, schedule: Q01DX009 (ip), vehicle: saline with Tween-80
[11] = dose: 400.0 mg/kg/injection, schedule: Q01DX009 (ip), vehicle: saline with Tween-80
[12] = dose: 12.5 mg/kg/injection, schedule: Q01DX009 (ip), vehicle: other
[13] = dose: 25.0 mg/kg/injection, schedule: Q01DX009 (ip), vehicle: other
[14] = dose: 50.0 mg/kg/injection, schedule: Q01DX009 (ip), vehicle: other
[15] = dose: 100.0 mg/kg/injection, schedule: Q01DX009 (ip), vehicle: other
[16] = dose: 200.0 mg/kg/injection, schedule: Q01DX009 (ip), vehicle: other

Structure (SMILES): CCCCCCCCCCN(CCCCCCCCCC)C1CC(OC2CC(O)(C(C)O)Cc3c(O)c4c(c(O)c32)C(=O)c2c(OC)cccc2C4=O)OC(C)C1O (stereo not drawn)
- T/C (dose: 4.7 mg/kg/injection, schedule: Q04DX003 (ip), vehicle: water): 99 % of control
- T/C (dose: 9.4 mg/kg/injection, schedule: Q04DX003 (ip), vehicle: water): 99 % of control
- T/C (dose: 18.8 mg/kg/injection, schedule: Q04DX003 (ip), vehicle: water): 101 % of control
- T/C (dose: 37.5 mg/kg/injection, schedule: Q04DX003 (ip), vehicle: water): 110 % of control
- T/C (dose: 75.0 mg/kg/injection, schedule: Q04DX003 (ip), vehicle: water): 101 % of control

Structure (SMILES): CNc1ccccc1C(=O)NCCCN
- T/C [1]: 98 % of control
- T/C [2]: 95 % of control
- T/C (dose: 200.0 mg/kg/injection, schedule: Q01DX005 (ip), vehicle: Klucel (hydroxypropylcellulose) (HPC)): 95 % of control

Structure (SMILES): c1ncc2n[pH]nc2n1 (stereo not drawn)
- T/C [3]: 95 % of control
- T/C [4]: 101 % of control
- T/C [5]: 96 % of control

Structure (SMILES): C=CCc1cc2c(cc1C(C)c1ccc(OC)cc1)OCO2 (stereo not drawn)
- T/C [6]: 106 % of control
- T/C [7]: 109 % of control
- T/C [8]: 117 % of control

Structure (SMILES): C=C(C)C1Cc2c(ccc3c2OC2COc4cc(OC)c(OC)cc4C2C3=O)O1 (stereo not drawn)
- T/C [9]: 86 % of control
- T/C [10]: 95 % of control
- T/C [11]: 95 % of control

Structure (SMILES): [N-]=[N+]=NCC1OC(n2cnc3c(N)ncnc32)CC1O (stereo not drawn)
- T/C [3]: 104 % of control
- T/C [4]: 100 % of control
- T/C [5]: 104 % of control

Structure (SMILES): Cc1cc(O)c(C=O)c2c1C(=O)Oc1c(CO)c(O)c3c(c1O2)C(O)OC3=O (stereo not drawn)
- T/C (dose: 50.0 mg/kg/injection, schedule: Q01DX009 (ip), vehicle: saline with Tween-80): 124 % of control

Structure (SMILES): O=C(CCn1[nH]c(=O)c(Cl)c(Cl)c1=O)NNc1ccc([N+](=O)[O-])cc1[N+](=O)[O-]
- T/C [6]: 92 % of control
- T/C [7]: 103 % of control
- T/C [8]: 92 % of control

Structure (SMILES): COc1ccc(C(OCC2CC3C=CC2C3)OCC2CC3C=CC2C3)cc1 (stereo not drawn)
- T/C [12]: 110 % of control
- T/C [13]: 111 % of control
- T/C [14]: 105 % of control
- T/C [15]: 114 % of control
- T/C [16]: 114 % of control

Structure (SMILES): Nc1c(Cl)ncnc1NCCN1CCOCC1
- T/C [1]: 99 % of control
- T/C [2]: 96 % of control

Structure (SMILES): C=C1C(=O)OCC1(C(=O)OCC)C(=O)OCC
- T/C (dose: 4.0 mg/kg/injection, schedule: Q01DX009 (ip), vehicle: saline with Tween-80): 117 % of control
- T/C (dose: 8.0 mg/kg/injection, schedule: Q01DX009 (ip), vehicle: saline with Tween-80): 117 % of control and 124 % of control
- T/C (dose: 16.0 mg/kg/injection, schedule: Q01DX009 (ip), vehicle: saline with Tween-80): 115 % of control
- T/C (dose: 32.0 mg/kg/injection, schedule: Q01DX009 (ip), vehicle: saline with Tween-80): 115 % of control

Structure (SMILES): CC1=NCCN1CCNC(=O)c1ccc(C(=O)NCCN2CCN=C2C)cc1
- T/C (dose: 1.88 mg/kg/injection, schedule: Q01DX005 (ip), vehicle: saline with Tween-80): 105 % of control
- T/C (dose: 3.75 mg/kg/injection, schedule: Q01DX005 (ip), vehicle: saline with Tween-80): 100 % of control
- T/C (dose: 7.5 mg/kg/injection, schedule: Q01DX005 (ip), vehicle: saline with Tween-80): 100 % of control and 115 % of control

Structure (SMILES): Oc1ccc(N=Cc2ccc3c(c2)OCO3)cc1
- T/C [12]: 109 % of control
- T/C [13]: 111 % of control
- T/C [14]: 94 % of control
- T/C [15]: 113 % of control
- T/C [16]: 111 % of control
- T/C (dose: 400.0 mg/kg/injection, schedule: Q01DX009 (ip), vehicle: other): 108 % of control

Structure (SMILES): O=Cc1ccc(C=O)cc1
- T/C (dose: 100.0 mg/kg/injection, schedule: Q04DX002 (ip), vehicle: saline with Tween-80): 98 % of control
- T/C (dose: 200.0 mg/kg/injection, schedule: Q04DX002 (ip), vehicle: saline with Tween-80): 102 % of control
- T/C (dose: 400.0 mg/kg/injection, schedule: Q04DX002 (ip), vehicle: saline with Tween-80): 102 % of control

Structure (SMILES): O=C1CCCN1C(=O)c1ccccc1
- T/C (dose: 18.8 mg/kg/injection, schedule: Q01DX001 (ip), vehicle: saline sonified): 105 % of control
- T/C (dose: 37.5 mg/kg/injection, schedule: Q01DX001 (ip), vehicle: saline sonified): 120 % of control
- T/C (dose: 75.0 mg/kg/injection, schedule: Q01DX001 (ip), vehicle: saline sonified): 105 % of control

Structure (SMILES): COC(=O)c1cc(NC(=O)NNC(=O)c2ccncc2)cc(C(=O)OC)c1
- T/C (dose: 12.5 mg/kg/injection, schedule: Q01DX009 (ip), vehicle: Klucel (hydroxypropylcellulose) (HPC)): 100 % of control
- T/C (dose: 25.0 mg/kg/injection, schedule: Q01DX009 (ip), vehicle: Klucel (hydroxypropylcellulose) (HPC)): 98 % of control
- T/C (dose: 50.0 mg/kg/injection, schedule: Q01DX009 (ip), vehicle: Klucel (hydroxypropylcellulose) (HPC)): 116 % of control and 98 % of control
- T/C (dose: 100.0 mg/kg/injection, schedule: Q01DX009 (ip), vehicle: Klucel (hydroxypropylcellulose) (HPC)): 90 % of control

Structure (SMILES): COC(=O)C1=C(C)NC(=O)NC1c1ccc(OC)cc1 (stereo not drawn)
- T/C (dose: 100.0 mg/kg/injection, schedule: Q04DX003 (ip), vehicle: saline with Tween-80): 95 % of control
- T/C (dose: 200.0 mg/kg/injection, schedule: Q04DX003 (ip), vehicle: saline with Tween-80): 95 % of control
- T/C (dose: 400.0 mg/kg/injection, schedule: Q04DX003 (ip), vehicle: saline with Tween-80): 100 % of control

Structure (SMILES): Cc1cc(N(CC(C)Br)CC(C)Br)ccc1N=Nc1ccccc1C(=O)O (stereo not drawn)
- T/C (dose: 6.25 mg/kg/injection, schedule: Q01DX009 (ip), vehicle: saline with Tween-80): 196 % of control
- T/C (dose: 12.5 mg/kg/injection, schedule: Q01DX009 (ip), vehicle: saline with Tween-80): 108 % of control
- T/C (dose: 12.5 mg/kg/injection, schedule: Q01DX009 (oral), vehicle: saline with Tween-80): 115 % of control
- T/C (dose: 50.0 mg/kg/injection, schedule: Q01DX009 (oral), vehicle: saline with Tween-80): 157 % of control
- T/C (dose: 100.0 mg/kg/injection, schedule: Q01DX009 (oral), vehicle: saline with Tween-80): 89 % of control

Structure (SMILES): NC(=S)c1cccc(/C=N/Nc2ccccc2)n1
- T/C (dose: 100.0 mg/kg/injection, schedule: Q04DX003 (ip), vehicle: Klucel (hydroxypropylcellulose) (HPC)): 101 % of control
- T/C (dose: 200.0 mg/kg/injection, schedule: Q04DX003 (ip), vehicle: Klucel (hydroxypropylcellulose) (HPC)): 99 % of control
- T/C (dose: 400.0 mg/kg/injection, schedule: Q04DX003 (ip), vehicle: Klucel (hydroxypropylcellulose) (HPC)): 97 % of control

Structure (SMILES): c1ccc(Cc2ccccn2)nc1
- T/C [9]: 104 % of control
- T/C [10]: 104 % of control
- T/C [11]: 95 % of control

Structure (SMILES): CCCCCNc1ncnc2c1ncn2C1OC(CO)C(O)C1O (stereo not drawn)
- T/C (dose: 12.5 mg/kg/injection, schedule: Q04DX003 (ip), vehicle: saline): 97 % of control
- T/C (dose: 25.0 mg/kg/injection, schedule: Q04DX003 (ip), vehicle: saline): 108 % of control
- T/C (dose: 50.0 mg/kg/injection, schedule: Q04DX003 (ip), vehicle: saline): 102 % of control
- T/C (dose: 100.0 mg/kg/injection, schedule: Q04DX003 (ip), vehicle: saline): 104 % of control

Structure (SMILES): CCOP(=O)(O)SP(=O)(O)OCC
- T/C (dose: 25.0 mg/kg/injection, schedule: Q01DX001 (ip), vehicle: saline): 100 % of control
- T/C (dose: 50.0 mg/kg/injection, schedule: Q01DX001 (ip), vehicle: saline): 102 % of control
- T/C (dose: 100.0 mg/kg/injection, schedule: Q01DX001 (ip), vehicle: saline): 102 % of control and 100 % of control
- T/C (dose: 200.0 mg/kg/injection, schedule: Q01DX001 (ip), vehicle: saline): 101 % of control
- T/C (dose: 400.0 mg/kg/injection, schedule: Q01DX001 (ip), vehicle: saline): 101 % of control

Structure (SMILES): O=S(=O)(Cl)c1ccccc1 (tested in a mixture with another compound)
- T/C (dose: 60.0 mg/kg/injection, schedule: Q01DX005 (ip), vehicle: saline with Tween-80): 104 % of control
- T/C (dose: 120.0 mg/kg/injection, schedule: Q01DX005 (ip), vehicle: saline with Tween-80): 99 % of control
- T/C (dose: 240.0 mg/kg/injection, schedule: Q01DX005 (ip), vehicle: saline with Tween-80): 99 % of control

Structure (SMILES): COc1ccc(C2[C@@H]3CCc4ccccc4C3=NN2C(C)=O)cc1 (stereo partly drawn)
- T/C [6]: 93 % of control
- T/C [7]: 91 % of control
- T/C [8]: 87 % of control

Structure (SMILES): Cc1ccc(/C=C/C(=O)C(C)CN(C)C)cc1 (stereo not drawn)
- T/C (dose: 15.0 mg/kg/injection, schedule: Q01DX005 (ip), vehicle: saline): 100 % of control
- T/C (dose: 30.0 mg/kg/injection, schedule: Q01DX005 (ip), vehicle: saline): 99 % of control
- T/C [3]: 98 % of control and 100 % of control
- T/C [4]: 100 % of control and 106 % of control and 107 % of control
- T/C [5]: 119 % of control

Source: PubChem BioAssay AID330 (DTP/NCI, 2004)
